Source: US10072011B2, “Substituted bridged urea analogs as sirtuin modulators” (GlaxoSmithKline Intellectual Property (No.2) Limited, priority 2014, dated 2018)
Like-named read-outs stand apart in the source and are kept apart here.

Target: T1, SIRT1 (Homo sapiens, UniProt Q96EB6)
T1 sequence (Q96EB6 1-747): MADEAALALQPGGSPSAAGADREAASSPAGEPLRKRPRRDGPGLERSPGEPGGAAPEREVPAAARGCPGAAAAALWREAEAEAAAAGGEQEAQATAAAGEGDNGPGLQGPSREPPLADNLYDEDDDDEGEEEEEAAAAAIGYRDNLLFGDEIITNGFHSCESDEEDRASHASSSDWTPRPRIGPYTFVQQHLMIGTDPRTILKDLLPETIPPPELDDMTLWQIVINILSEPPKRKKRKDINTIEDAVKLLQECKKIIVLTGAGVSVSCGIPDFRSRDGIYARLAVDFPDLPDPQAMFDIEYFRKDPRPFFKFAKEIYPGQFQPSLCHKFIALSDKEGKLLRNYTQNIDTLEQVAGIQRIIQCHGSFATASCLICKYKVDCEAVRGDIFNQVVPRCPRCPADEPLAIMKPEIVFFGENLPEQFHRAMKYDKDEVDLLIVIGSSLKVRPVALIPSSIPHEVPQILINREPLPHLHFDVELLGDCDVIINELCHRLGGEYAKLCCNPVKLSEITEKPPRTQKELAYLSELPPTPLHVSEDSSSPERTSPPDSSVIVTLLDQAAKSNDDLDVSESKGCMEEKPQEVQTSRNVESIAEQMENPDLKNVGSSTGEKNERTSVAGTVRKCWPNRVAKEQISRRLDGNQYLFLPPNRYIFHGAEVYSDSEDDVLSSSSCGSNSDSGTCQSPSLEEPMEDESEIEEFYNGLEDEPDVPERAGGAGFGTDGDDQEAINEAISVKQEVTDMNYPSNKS
Assay: Trp mass spectrometry assay of SIRT1 activation (Ac-R-H-K-K(Ac)-W-NH2 peptide)
Type: biochemical
Conditions: for Emax: 25 min, read-out: TRP MAX RESP (percent maximum fold activation)
In short: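 Mass spectrometry read-out (OAADPR formed, or deacetylated Trp peptide) after a 25 min NAD-dependent deacetylation by E. coli-expressed His-SIRT1, stopped with formic acid.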

[1] = Trp peptide 0.5 μM, 120 μM βNAD+, 10 nM SIRT1, 25 min at 25° C., relative to control (100%)
[2] = Trp peptide 0.5 μM, 120 μM βNAD+, 10 nM SIRT1, 25 min at 25° C.

SMILES	Emax [1]	TRP Activity (EC1.5, concentration of test compound that results in 150% activation of SIRT1) [2]	Emax
C[C@@H](NC(=O)c1ccc2c(n1)N(C(=O)Nc1ncc(F)cc1F)[C@H]1CCN2C1)C(F)(F)F [Example 239, (4S)—N5-(3,5-difluoropyridin-2-yl)-N7-((R)-1,1,1-trifluoropropan-2-yl)-3,4-dihydro-1,4-methanopyrido[2,3-b][1,4]diazepine-5,7(2H)-dicarboxamide]	> 150%	B (EC1.5 1-25 μM)	
O=C(NCc1ccc(F)cc1)c1ccc2c(n1)N(C(=O)Nc1cc(OC[C@H](O)CO)ccn1)[C@H]1CCN2C1 [Example 240, (4S)—N5-(4-((R)-2,3-dihydroxypropoxy)pyridin-2-yl)-N7-(4-fluorobenzyl)-3,4-dihydro-1,4-methanopyrido[2,3-b][1,4]diazepine-5,7(2H)-dicarboxamide]	> 150%	A (EC1.5<1 μM)	
O=C(NC1(C(F)(F)F)CC1)c1ccc2c(n1)N(C(=O)Nc1ccccn1)[C@H]1CCN2C1 [Example 241, (4S)—N5-(pyridin-2-yl)-N7-(1-(trifluoromethyl)cyclopropyl)-3,4-dihydro-1,4-methanopyrido[2,3-b][1,4]diazepine-5,7(2H)-dicarboxamide]	> 150%	A (EC1.5<1 μM)	
C[C@@H](NC(=O)c1ccc2c(n1)N(C(=O)Nc1nccc(OC[C@H](O)CO)n1)[C@H]1CCN2C1)C(F)(F)F [Example 244, (4S)—N5-(4-((R)-2,3-dihydroxypropoxy)pyrimidin-2-yl)-N7-((R)-1,1,1-trifluoropropan-2-yl)-3,4-dihydro-1,4-methanopyrido[2,3-b][1,4]diazepine-5,7(2H)-dicarboxamide]	> 150%	A (EC1.5<1 μM)	
O=C(NC1CC(F)(F)C1)c1ccc2c(n1)N(C(=O)Nc1ccccn1)[C@H]1CCN2C1 [Example 246, (4S)—N7-(3,3-difluorocyclobutyl)-N5-(pyridin-2-yl)-3,4-dihydro-1,4-methanopyrido[2,3-b][1,4]diazepine-5,7(2H)-dicarboxamide]	> 150%	A (EC1.5<1 μM)	
Cc1cccnc1NC(=O)N1c2nc(C(=O)N[C@H](C)C(F)(F)F)ccc2N2CC[C@H]1C2 [Example 247, (4S)—N5-(3-methylpyridin-2-yl)-N7-((R)-1,1,1-trifluoropropan-2-yl)-3,4-dihydro-1,4-methanopyrido[2,3-b][1,4]diazepine-5,7(2H)-dicarboxamide]	> 150%	B (EC1.5 1-25 μM)	
O=C(NC1CC1)c1ccc2c(n1)N(C(=O)Nc1cc(OC[C@@H](O)CO)ccn1)[C@H]1CCN2C1 [Example 250, (4S)—N7-cyclopropyl-N5-(4-((S)-2,3-dihydroxypropoxy)pyridin-2-yl)-3,4-dihydro-1,4-methanopyrido[2,3-b][1,4]diazepine-5,7(2H)-dicarboxamide]	> 150%	A (EC1.5<1 μM)	
C[C@@H](NC(=O)c1ccc2c(n1)N(C(=O)Nc1ccon1)[C@H]1CCN2C1)C(F)(F)F [Example 251, (4S)—N5-(isoxazol-3-yl)-N7-((R)-1,1,1-trifluoropropan-2-yl)-3,4-dihydro-1,4-methanopyrido[2,3-b][1,4]diazepine-5,7(2H)-dicarboxamide]	> 150%	B (EC1.5 1-25 μM)	
Cc1ncc(-c2ccnc(NC(=O)N3c4nc(C(=O)N[C@H](C)C(F)(F)F)cc(C)c4N4CC[C@H]3C4)c2)o1 [Example 252, (4S)-9-methyl-N5-(4-(2-methyloxazol-5-yl)pyridin-2-yl)-N7-((R)-1,1,1-trifluoropropan-2-yl)-3,4-dihydro-1,4-methanopyrido[2,3-b][1,4]diazepine-5,7(2H)-dicarboxamide]	< 150%	A (EC1.5<1 μM)	
C#CC(C)(C)NC(=O)c1ccc2c(n1)N(C(=O)Nc1ccccn1)[C@H]1CCN2C1 [Example 253, (4S)—N7-(2-methylbut-3-yn-2-yl)-N5-(pyridin-2-yl)-3,4-dihydro-1,4-methanopyrido[2,3-b][1,4]diazepine-5,7(2H)-dicarboxamide]	> 150%	B (EC1.5 1-25 μM)	
CN(CC(F)(F)F)C(=O)c1ccc2c(n1)N(C(=O)Nc1ccccn1)[C@H]1CCN2C1 [Example 254, (4S)—N7-methyl-N5-(pyridin-2-yl)-N7-(2,2,2-trifluoroethyl)-3,4-dihydro-1,4-methanopyrido[2,3-b][1,4]diazepine-5,7(2H)-dicarboxamide]	> 150%	B (EC1.5 1-25 μM)	
Cc1nc(NC(=O)N2c3nc(C(=O)NC4CC4)ccc3N3CC[C@H]2C3)co1 [Example 255, (4S)—N7-cyclopropyl-N5-(2-methyloxazol-4-yl)-3,4-dihydro-1,4-methanopyrido[2,3-b][1,4]diazepine-5,7(2H)-dicarboxamide]	> 150%	B (EC1.5 1-25 μM)	
O=C(NCc1nnn[nH]1)c1ccc2c(n1)N(C(=O)Nc1cc(OC[C@H](O)CO)ccn1)[C@H]1CCN2C1 [Example 256, (4S)—N7-((1H-tetrazol-5-yl)methyl)-N5-(4-((R)-2,3-dihydroxypropoxy)pyridin-2-yl)-3,4-dihydro-1,4-methanopyrido[2,3-b][1,4]diazepine-5,7(2H)-dicarboxamide]	> 150%	B (EC1.5 1-25 μM)	
NC(=O)c1ccc2c(n1)N(C(=O)Nc1ccccn1)[C@H]1CCN2C1 [Example 257, (4S)—N5-(pyridin-2-yl)-3,4-dihydro-1,4-methanopyrido[2,3-b][1,4]diazepine-5,7(2H)-dicarboxamide]	> 150%	B (EC1.5 1-25 μM)	
CN(C)C(=O)c1ccnc(NC(=O)N2c3nc(C(=O)NCC(F)(F)F)ccc3N3CC[C@H]2C3)c1 [Example 259, (4S)—N5-(4-(dimethylcarbamoyl)pyridin-2-yl)-N7-(2,2,2-trifluoroethyl)-3,4-dihydro-1,4-methanopyrido[2,3-b][1,4]diazepine-5,7(2H)-dicarboxamide]		B (EC1.5 1-25 μM)	> 150%
O=C(NCC(F)(F)F)c1cc(O)c2c(n1)N(C(=O)Nc1ccccn1)[C@H]1CCN2C1 [Example 261, (4S)-9-hydroxy-N5-(pyridin-2-yl)-N7-(2,2,2-trifluoroethyl)-3,4-dihydro-1,4-methanopyrido[2,3-b][1,4]diazepine-5,7(2H)-dicarboxamide]	> 150%	A (EC1.5<1 μM)	
C[C@@H](NC(=O)c1ccc2c(n1)N(C(=O)Nc1cc(C(=O)N[C@H]3CCOC3)ccn1)[C@H]1CCN2C1)C(F)(F)F [Example 264, (4S)—N5-(4-(((S)-tetrahydrofuran-3-yl)carbamoyl)pyridin-2-yl)-N7-((R)-1,1,1-trifluoropropan-2-yl)-3,4-dihydro-1,4-methanopyrido[2,3-b][1,4]diazepine-5,7(2H)-dicarboxamide]	< 150%	C (EC1.5>25 μM)	
C[C@@H](NC(=O)c1ccc2c(n1)N(C(=O)Nc1cc(OCC(=O)O)ccn1)[C@H]1CCN2C1)C(F)(F)F [Example 265, 2-((2-((4S)-7-(((R)-1,1,1-trifluoropropan-2-yl)carbamoyl)-2,3,4,5-tetrahydro-1,4-methanopyrido[2,3-b][1,4]diazepine-5-carboxamido)pyridin-4-yl)oxy)acetic acid]	> 150%	B (EC1.5 1-25 μM)	
C[C@@H](NC(=O)c1ccc2c(n1)N(C(=O)Nc1cc(OCCCO)ccn1)[C@H]1CCN2C1)C(F)(F)F [Example 266, (4S)—N5-(4-(3-hydroxypropoxy)pyridin-2-yl)-N7-((R)-1,1,1-trifluoropropan-2-yl)-3,4-dihydro-1,4-methanopyrido[2,3-b][1,4]diazepine-5,7(2H)-dicarboxamide]	> 150%	A (EC1.5<1 μM)	
O=C(O)c1ccnc(NC(=O)N2c3nc(C(=O)NCC(F)(F)F)ccc3N3CC[C@H]2C3)c1 [Example 267, 2-((4S)-7-((2,2,2-trifluoroethyl)carbamoyl)-2,3,4,5-tetrahydro-1,4-methanopyrido[2,3-b][1,4]diazepine-5-carboxamido)isonicotinic acid]	> 150%	B (EC1.5 1-25 μM)	
